# Results published in patent publication US8470813B2, “Thiazoline and oxazoline derivatives and their methods of use” (AbbVie Inc., priority 2006, dated 2013).
# Legend:
# [1] = biological target: T1, α7 nAChRs (Homo sapiens, UniProt P36544); experiment: High-throughput calcium flux (FLIPR) assay using IMR-32 cells expressing endogenous α7 nAChRs; format: cell-based
# T1 construct: IMR-32 cells endogenous expressing α7 nAChRs; host or cells: IMR-32 neuroblastoma cells
# Excerpt: (i) High-Throughput Calcium Flux Assays Using Cells Expressing Endogenous α7 nAChRs
# As such, positive allosteric modulators can be identified or nicotinic acetylcholine receptor agonists can be identified by using IMR-32 cells that endogenously express various nicotinic receptors including α7 nAChRs. […] Accordingly, allosteric modulator compounds described herein can be identified using fluorescence-based throughput functional assay using cell lines such as IMR-32 neuroblastoma or primary dissociated neurons. Although cell types such as IMR-32 neuroblastoma and neurons are known to contain several nicotinic receptor subunits, α7 selective agonists in the present assay selectively stimulate calcium responses only in the presence of positive allosteric modulators. Any suitable selective α7 agonist can be used.
# IMR-32 neuroblastoma cells (ATCC) were grown to confluency in 162 cm^2 tissue culture flasks in minimum essential media supplemented with 10% FBS and 1 mM sodium pyruvate, 0.1 mM non-essential amino acids and 1% antibiotic-antimycotic. The cells were then dissociated using cell dissociation buffer and 40 μl of 3.5×10^5 cells/ml cell suspension was plated (15,000 cells/well) into black plates with clear bottom and maintained for 48 hours in a tissue culture incubator at 37° C. under an atmosphere of 5% CO2: 95% air. […] Calcium flux was measured using calcium-3 assay kit (Molecular Devices, Sunnyvale, Calif.) or fluo-4. A stock solution of the dye was prepared by dissolving each vial supplied by the vendor in Hank's balanced salt solution buffer (HBSS) containing 20 mM HEPES. The stock solution was diluted 1:20 using the same buffer before use. The growth media was removed from the cells and loaded with 45 μl of the dye and incubated at room temperature for three hours. Fluorescence measurements were read simultaneously from all the wells by a Fluorometic Imaging Plate Reader (FLIPR) at an excitation wavelength of 480 nm and an emission wavelength of 520 nm. Baseline fluorescence was measured for the first 10 seconds at which 5× concentrations of modulator/test compounds were added to the cell plate and incubated for three minutes. The fluorescence intensity was captured every second for the first 1 minute followed by every 5 seconds for an additional 2 minutes. This procedure was followed by 20 μl of 4× concentration of agonist and readings were taken for a period of three minutes as described above.
# [2] = biological target: T2, α7 nAChRs (Rattus norvegicus, UniProt Q05941); experiment: High-throughput phospho-ERK assay (in-cell western) using PC-12 cells expressing endogenous α7 nAChRs; format: cell-based; settings: in presence of selective α7 agonist, FIG. 4
# T2 construct: cells expressing endogenous α7 nAChRs without the need for overexpressing recombinant receptors; host or cells: PC-12 rat pheochromocytoma cells
# Experimental: To determine the effectiveness of compounds of formula (I) or (II), as allosteric modulators, the compounds of the invention were evaluated according to two high-throughput functional assays using (i) IMR-32 cells endogenous expressing α7 nAChRs and measuring Ca^2+ flux or membrane potential changes utilizing the fluorescence-imaging plate reader (FLIPR)-based assays and (ii) measurement of phospho-ERK activity using western blot assays. These assays allow for higher throughput screening of positive allosteric modulators using cells or cell lines expressing endogenous α7 nAChRs.
# (ii) High-Throughput Phospho-Erk Assays Using Cells Expressing Endogenous α7 nAChRs
# Rat pheochromocytoma (PC-12) cells (ATCC, Manassas, Va.) were cultured and maintained in F-12K media supplemented with 15% horse serum, 2.5% fetal calf serum, and 2 mM L-Glutamine in poly-D lysine coated dishes at 37° C. and 5% CO2. […]
# PC-12 cells are treated for 10 minutes at 37° C. with test positive allosteric modulator compounds and then challenged with a selective α7 agonist for 5 minutes at 37° C. in a final volume of 100 μl/well, unless otherwise indicated. […] Well intensities were quantitated and phospho-ERK signals were normalized to total ERK signals by the Odyssey software. […]
# T1 sequence (P36544 23-502): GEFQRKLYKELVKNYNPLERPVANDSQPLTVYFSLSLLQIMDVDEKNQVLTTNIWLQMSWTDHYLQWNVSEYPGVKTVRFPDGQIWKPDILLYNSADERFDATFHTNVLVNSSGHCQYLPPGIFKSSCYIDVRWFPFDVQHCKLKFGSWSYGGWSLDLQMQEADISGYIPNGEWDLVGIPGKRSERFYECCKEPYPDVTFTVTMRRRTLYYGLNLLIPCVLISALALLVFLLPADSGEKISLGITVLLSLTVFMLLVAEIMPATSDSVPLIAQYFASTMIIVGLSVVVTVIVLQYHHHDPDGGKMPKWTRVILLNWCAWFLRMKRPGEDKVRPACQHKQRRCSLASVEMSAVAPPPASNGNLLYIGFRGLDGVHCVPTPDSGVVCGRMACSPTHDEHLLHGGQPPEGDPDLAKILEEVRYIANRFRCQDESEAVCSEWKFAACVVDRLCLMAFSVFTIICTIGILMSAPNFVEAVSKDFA
# T2 sequence (Q05941 23-502): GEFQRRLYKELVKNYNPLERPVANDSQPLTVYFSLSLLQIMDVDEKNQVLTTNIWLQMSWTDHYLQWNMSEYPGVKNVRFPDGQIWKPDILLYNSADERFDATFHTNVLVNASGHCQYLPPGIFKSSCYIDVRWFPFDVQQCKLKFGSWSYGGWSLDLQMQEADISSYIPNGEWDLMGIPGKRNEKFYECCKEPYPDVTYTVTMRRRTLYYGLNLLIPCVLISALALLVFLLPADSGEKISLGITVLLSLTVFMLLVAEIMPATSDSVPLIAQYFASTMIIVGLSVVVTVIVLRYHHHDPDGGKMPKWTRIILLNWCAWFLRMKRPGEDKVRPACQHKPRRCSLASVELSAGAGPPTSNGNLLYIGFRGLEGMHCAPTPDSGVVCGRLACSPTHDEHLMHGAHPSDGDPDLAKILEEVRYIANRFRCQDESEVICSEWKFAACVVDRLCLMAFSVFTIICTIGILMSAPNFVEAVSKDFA
smiles,measurement,setting,value
"c1ccc(-c2nnc(N3CCN4CCC3CC4)o2)cc1 [4-(5-Phenyl-[1,3,4]oxadiazol-2-yl)-1,4-diaza-bicyclo[3.2.2]nonane, reference compound]","calcium response, agonist alone","[1]; IMR-32 cells, absence of allosteric modulator, FIG. 3",did not trigger calcium responses
"Cc1cn(-c2ccc3c(c2)OC(F)(F)O3)/c(=N/C(=O)N(C)C)s1 [Example 9, N′-[(2Z)-3-(2,2-difluoro-1,3-benzodioxol-5-yl)-5-methyl-1,3-thiazol-2(3H)-ylidene]-N,N-dimethylurea]","ERK phosphorylation, concentration-response",[2],evoke concentration-dependent increases in ERK phosphorylation
same,"calcium fluorescence response, modulator co-applied with agonist","[1]; IMR-32 cells, Example 9 10 μM with agonist 4-(5-phenyl-[1,3,4]oxadiazol-2-yl)-1,4-diaza-bicyclo[3.2.2]nonane, FIG. 1",evoked calcium fluorescence response
same,"calcium response, modulator alone","[1]; IMR-32 cells, absence of α7 nAChR agonist, FIG. 2",did not trigger calcium responses
same,EC50,"[1]; IMR-32 neuroblastoma cells, in presence of agonist 4-(5-phenyl-[1,3,4]oxadiazol-2-yl)-1,4-diaza-bicyclo[3.2.2]nonane, FIG. 2, read-out: EC50 value of the modulator (calcium fluorescence response)",3 µM
"CCN1C[C@]2(COC(=O)c3ccccc3N3C(=O)C[C@H](C)C3=O)CC[C@H](OC)[C@@]34[C@@H]5C[C@H]6[C@H](OC)[C@@H]5[C@](O)(C[C@@H]6OC)[C@@](O)([C@@H](OC)[C@H]23)[C@@H]14 [methyllycaconitine, reference compound]",effect of α7 selective antagonist on agonist plus modulator calcium response,[1]; IMR-32 cells,abolishes response
